{"source": "patent US4395400A", "about": "“Nonapeptide, a process for its preparation, an agent containing it and its use” (Hoechst Aktiengesellschaft, priority 1980, dated 1983)", "key": {"[1]": {"test_system": "gonadoliberin biological action", "settings": "D-aminoacid in position 6 with tert.-butyl type protective group; cited from earlier work"}, "[2]": {"assay": "absorption from the gastro-intestinal tract", "type": "in vivo", "settings": "humans", "procedure": "The preferred method of administration in humans is intranasal administration, since absorption of the compound from the gastro-intestinal tract is only slight and parenteral administration is inappropriate for the patient. About 0.1 ml of a buffer solution, in which the necessary quantity of the active compound is dissolved, is sprayed into the nose via a spray jet, by means of a dosing atomizer."}, "[3]": {"assay": "solubility in aqueous buffer solutions", "type": "physicochemical", "source_text": "This makes the compound suitable for intranasal administration, for which, as shown by experience, solubility can be the limiting factor."}}}
{"smiles": "CC(C)(C)OC[C@@H](N)C(=O)O", "note": "[O-tert.-butyl-D-serine]", "values": [{"measurement": "biological action of position-6 substituted gonadoliberin derivative", "setting": "[1]", "result": "strongest biological action"}]}
{"smiles": "CCNC(=O)[C@@H]1CCCN1C(=O)[C@H](CCCNC(=N)N)NC(=O)[C@H](CC(C)C)NC(=O)[C@@H](CCCC(=O)OC(C)(C)C)NC(=O)[C@H](Cc1ccc(O)cc1)NC(=O)[C@H](CO)NC(=O)[C@H](Cc1c[nH]c2ccccc12)NC(=O)[C@H](Cc1c[nH]cn1)NC(=O)[C@@H]1CCC(=O)N1", "note": "[nonapeptide]", "values": [{"measurement": "absorption from the gastro-intestinal tract", "setting": "[2]", "result": "only slight"}, {"measurement": "solubility in aqueous buffer solutions", "setting": "[3]; aqueous buffer solutions", "result": "good solubility"}, {"measurement": "solubility compared with other gonadoliberin analogs", "setting": "[3]; versus analogs of comparable effectiveness, particularly the D-Trp^6 or D-His(Bzl)^6 analogs", "result": "appreciably greater"}]}
